# Key:
# [1] = test system: Mycobacterium tuberculosis; experiment: Antibacterial activity against Mycobacterium tuberculosis H37Rv by alamar blue method; format: functional
# Candida albicans [2] = experiment: Antifungal activity against Candida albicans; format: functional, organism-based
# [3] = test system: Mycobacterium tuberculosis; experiment: Antibacterial activity against Mycobacterium tuberculosis H37Rv assessed as reduction in relative light unit at 5.2 microg/ml incubated for 72 hrs by luciferase reporter phage assay relative to control; format: functional; set-up: scale not given: the % may be the effect or the level left; conditions: dose 5.2 µg/ml
# Mus musculus = experiment: Antiinflammatory activity against ear oedema mouse model assessed as inhibition of xylene induced edema; format: functional
# Candida albicans [4] = experiment: Antifungal activity against Candida albicans ATCC 76615 incubated for 24 hrs by microbroth dilution method; format: functional
# [5] = test system: Mycobacterium tuberculosis; experiment: Antibacterial activity against Mycobacterium tuberculosis H37Rv; format: functional
# Aspergillus niger [6] = experiment: Antifungal activity against Aspergillus niger ATCC 9029; format: functional
# Pichia norvegensis = experiment: Antifungal activity against Candida mycoderma incubated for 24 hrs; format: functional
# [7] = test system: Meyerozyma guilliermondii; experiment: Antifungal activity against Meyerozyma guilliermondii assessed as zone of inhibition; format: functional
# Candida albicans [8] = experiment: Antifungal activity against Candida albicans ATCC 2091; format: functional
# Pichia kudriavzevii = experiment: Antifungal activity against Candida krusei ATCC 6258; format: functional
# Plasmodium falciparum [9] = experiment: Antimalarial activity against chloroquine-sensitive Plasmodium falciparum 3D7; format: functional
# [10] = test system: Mycobacterium tuberculosis; experiment: Potency index, ratio of pyrazinamide MIC to test compound MIC for antibacterial activity against Mycobacterium tuberculosis H37Rv; format: functional
# Plasmodium falciparum [11] = experiment: Antiplasmodial activity against Plasmodium falciparum W2 infected in red blood cells (unknown origin) incubated for 72 hrs by LDH assay; format: functional, organism-based, Red blood cell; conditions: W2, Erythrocyte
# Candida albicans [12] = experiment: Antifungal activity against Candida albicans assessed as zone of inhibition; format: functional
# Aspergillus niger [13] = experiment: Antifungal activity against Aspergillus niger assessed as zone of inhibition; format: functional
# [14] = target: T1, Prostaglandin G/H synthase 2 (Rattus norvegicus, UniProt P35355); experiment: Inhibition of COX2 in rat macrophages using arachidonic acid as substrate preincubated with compound for 30 mins followed by substrate addition and measured after 20 mins by EIA; format: cell-based, Macrophage
# T1 sequence (P35355 whole entry): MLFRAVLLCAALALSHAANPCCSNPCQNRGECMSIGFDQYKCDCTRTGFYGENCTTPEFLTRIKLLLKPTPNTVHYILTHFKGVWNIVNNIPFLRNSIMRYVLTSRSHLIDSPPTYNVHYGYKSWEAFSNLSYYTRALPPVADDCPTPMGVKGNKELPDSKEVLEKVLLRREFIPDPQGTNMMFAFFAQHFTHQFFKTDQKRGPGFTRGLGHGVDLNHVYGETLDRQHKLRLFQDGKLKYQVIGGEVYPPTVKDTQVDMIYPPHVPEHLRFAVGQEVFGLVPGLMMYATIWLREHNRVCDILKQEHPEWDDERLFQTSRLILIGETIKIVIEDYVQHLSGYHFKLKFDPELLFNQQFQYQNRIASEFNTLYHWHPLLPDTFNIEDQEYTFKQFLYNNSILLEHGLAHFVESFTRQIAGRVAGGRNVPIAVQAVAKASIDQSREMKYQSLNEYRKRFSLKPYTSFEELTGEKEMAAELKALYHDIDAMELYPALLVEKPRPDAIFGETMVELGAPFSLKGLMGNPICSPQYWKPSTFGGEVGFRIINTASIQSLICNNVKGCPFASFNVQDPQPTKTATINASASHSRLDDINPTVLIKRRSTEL
# [15] = target: T2, Polyunsaturated fatty acid 5-lipoxygenase (Rattus norvegicus, UniProt P12527); experiment: Inhibition of 5-LOX in Sprague-Dawley rat leukocytes preincubated for 30 mins followed by calcium ionophore A23187 addition and measured after 20 mins by EIA; format: cell-based, Leucocyte
# T2 sequence (P12527 whole entry): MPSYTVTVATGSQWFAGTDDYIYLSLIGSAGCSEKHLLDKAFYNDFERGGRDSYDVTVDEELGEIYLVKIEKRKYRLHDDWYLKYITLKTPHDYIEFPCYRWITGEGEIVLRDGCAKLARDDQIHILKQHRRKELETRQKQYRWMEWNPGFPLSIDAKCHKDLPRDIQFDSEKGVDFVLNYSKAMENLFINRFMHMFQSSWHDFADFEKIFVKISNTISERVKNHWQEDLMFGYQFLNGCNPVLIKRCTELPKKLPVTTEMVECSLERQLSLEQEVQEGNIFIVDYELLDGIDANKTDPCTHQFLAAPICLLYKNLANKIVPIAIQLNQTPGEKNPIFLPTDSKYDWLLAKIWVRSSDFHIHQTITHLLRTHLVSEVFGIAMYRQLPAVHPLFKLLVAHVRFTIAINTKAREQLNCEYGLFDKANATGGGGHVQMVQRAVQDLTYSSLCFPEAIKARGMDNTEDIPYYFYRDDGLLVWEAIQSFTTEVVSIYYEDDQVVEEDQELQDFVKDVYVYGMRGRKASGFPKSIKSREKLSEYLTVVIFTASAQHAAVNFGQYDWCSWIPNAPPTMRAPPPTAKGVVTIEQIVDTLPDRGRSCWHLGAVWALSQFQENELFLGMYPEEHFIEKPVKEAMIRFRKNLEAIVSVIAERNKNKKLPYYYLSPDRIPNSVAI
# [16] = Selectivity index, ratio of IC50 for inhibition of COX2 in rat macrophages to IC50 for inhibition of COX1 in calf endotheliocyte
# MCF7 = experiment: Cytotoxicity against human MCF7 cells measured 24 hrs by MTT assay; format: functional, cell-based; conditions: MCF7, 24 h
# [17] = test system: Mycobacterium tuberculosis; experiment: Antibacterial activity against Mycobacterium tuberculosis; format: functional
# [18] = test system: Mycobacterium tuberculosis; experiment: Antibacterial activity against Mycobacterium tuberculosis H37Rv (ATTCC 27294) by alamar blue based broth dilution assay; format: functional
# [19] = test system: Mycobacterium tuberculosis; experiment: Antibacterial activity against Mycobacterium tuberculosis H37Rv assessed as reduction in relative light unit at 2 microg/ml incubated for 72 hrs by luciferase reporter phage assay relative to control; format: functional; set-up: scale not given: the % may be the effect or the level left; conditions: dose 2 µg/ml
smiles,measurement,setting,value
c1c[nH]c(Cc2nc3ccccc3c3cc[nH]c23)c1,MIC,[1],3.3 µg/mL
O=C(O)c1cn(C2CC2)c2cc(N3CCNCC3)c(F)cc2c1=O [CIPROFLOXACIN],MIC,[1],4.7 µg/mL
O=C(/C=C/c1ccc(Cl)cc1Cl)c1ccc(OCC(O)(Cn2cncn2)c2ccc(F)cc2F)cc1 (stereo unspecified),MIC50,Candida albicans [2],0.12 µg/mL
CC(=O)OC[C@H]1O[C@@H](OCc2cn(Cc3ccc4ccccc4n3)nn2)[C@H](OC(C)=O)[C@@H](OC(C)=O)[C@@H]1OC(C)=O,Activity,[3],76.41%
Cc1ccc(-c2cc(C(F)(F)F)nn2-c2ccc(S(N)(=O)=O)cc2)cc1 [CELECOXIB],inhibition (INH),Mus musculus,64.9%
Clc1ccc(Cn2c[n+](CCCCCC[n+]3cnn(Cc4ccc(Cl)cc4Cl)c3)cn2)c(Cl)c1.[Br-].[Br-],MIC,Candida albicans [4],22.9 µg/mL
O=C1Nc2cc3c(-c4ccccc4)c(-c4ccccc4)oc(=O)c3cc2C(c2ccccc2Cl)N1 (stereo unspecified),MIC,[5],62.5 µg/mL
OC(Cn1cncn1)(Cn1cncn1)c1ccc(F)cc1F [FLUCONAZOLE],MIC,Aspergillus niger [6],12.5 µg/mL
same,MIC,Pichia norvegensis,4 µg/mL
same,inhibition zone (IZ),[7],21 mm
same,MIC,Candida albicans [8],6.25 µg/mL
same,MIC,Pichia kudriavzevii,3.12 µg/mL
same,MIC,Candida albicans [4],52.2 µg/mL
CS(=O)(=O)c1ccc(-c2nc(S(C)(=O)=O)nn2-c2ccc(Cl)cc2)cc1,inhibition (INH),Mus musculus,77.2%
CC1=C(c2nnc(/N=C3\C(=O)Nc4ccc(Cl)cc43)o2)C(c2ccccc2)NC(=S)N1 (stereo unspecified),MIC,Plasmodium falciparum [9],0.035 µg/mL
O=C1Oc2cc(OCCN(N3CCOCC3)N3CCOCC3)ccc2C2c3ccccc3OC12 (stereo unspecified),MIC,[5],3.12 µg/mL
O=C1Nc2ccccc2C12C(c1cccc([N+](=O)[O-])c1)C([N+](=O)[O-])C1CSCN12 (stereo unspecified),Ratio,[10],6.7
same,MIC,[5],7.6 µM
COc1cc(Nc2nc(OCc3cn(CCNc4cccc5cc(Cl)ccc45)nn3)nc(N(C)C)n2)cc(OC)c1,IC50,Plasmodium falciparum [11],1150 nM
CSc1nc(-c2ccc(S(N)(=O)=O)cc2)n(-c2ccc(Cl)cc2)n1,inhibition (INH),Mus musculus,80%
COC1=CC(=O)C[C@@H](C)[C@]12Oc1c(Cl)c(OC)cc(OC)c1C2=O [GRISEOFULVIN],inhibition zone (IZ),Candida albicans [12],39 mm
same,inhibition zone (IZ),Aspergillus niger [13],36 mm
CCn1cc(C(=O)NN2C(=O)CSC2c2ccccc2OC)c(=O)c2cc(F)c(N3CCNCC3)cc21 (stereo unspecified),MIC,Aspergillus niger [6],12.5 µg/mL
same,MIC,Candida albicans [8],3.12 µg/mL
same,MIC,Pichia kudriavzevii,1.59 µg/mL
CS(=O)(=O)c1ccc(-c2nc(SCCN(O)C(N)=O)nn2-c2ccc(Br)cc2)cc1,IC50,[14],150 nM
same,IC50,[15],850 nM
same,Ratio IC50,[16],0.015
CCCCCCCCCCC(=O)N[C@H](C(=O)O)[C@H]1O[C@@H](n2ccc(=O)[nH]c2=O)[C@H](O)[C@@H]1O,MIC,Candida albicans [2],40 µg/mL
CC[C@@H](CO)NCCN[C@@H](CC)CO [ETHAMBUTOL],MIC,[5],7.6 µM
COc1ccc(-c2nc(-c3ccccc3)c(-c3ccccc3)n2C(NN(c2ccccc2)c2ccccc2)c2ccccc2)c(OC)c1OC (stereo unspecified),inhibition zone (IZ),Candida albicans [12],28 mm
same,inhibition zone (IZ),Aspergillus niger [13],27 mm
COc1cc(/C=C/c2ccc(O)c(/C=N/NC(N)=S)c2)cc(OC)c1,IC50,MCF7,25000 nM
C[C@@H]([C@H](N)C(=O)N[C@H](C(=O)O)[C@H]1O[C@@H](n2ccc(=O)[nH]c2=O)[C@H](O)[C@@H]1O)[C@H](O)c1ccc(O)cn1 [NIKKOMYCIN],IC50,Candida albicans [2],0.393 µg/mL
COc1ccc(-c2nc(-c3ccccc3)c(-c3ccccc3)n2C(NN(c2ccccc2)c2cccc3ccccc23)c2ccccc2)c(OC)c1OC (stereo unspecified),inhibition zone (IZ),Candida albicans [12],20 mm
same,inhibition zone (IZ),Aspergillus niger [13],24 mm
NC(=O)c1cnccn1 [PYRAZINAMIDE],MIC,[5],50.1 µM
O=C1Nc2cc3c(-c4ccccc4)c(-c4ccccc4)oc(=O)c3cc2C(c2ccc(Cl)cc2)N1 (stereo unspecified),MIC,[5],50 µg/mL
NC(=O)OC[C@H](O)[C@@H](O)[C@H](N)C(=O)N[C@H](C(=O)O)[C@H]1O[C@@H](n2cc(C(=O)O)c(=O)[nH]c2=O)[C@H](O)[C@@H]1O,MIC,Candida albicans [2],320 µg/mL
Cc1cccc(C)c1Nc1nc(OCc2cn(CCCNc3cccc4cc(Cl)ccc34)nn2)nc(N(C)C)n1,IC50,Plasmodium falciparum [11],730 nM
COc1cc(/C=C/c2ccc(O)cc2)cc(OC)c1 [PTEROSTILBENE],IC50,MCF7,65000 nM
Cc1cccc(C)c1Nc1nc(OCc2cn(CCNc3cccc4cc(Cl)ccc34)nn2)nc(N(C)C)n1,IC50,Plasmodium falciparum [11],1690 nM
O=C1NN=C(/N=C/c2cccc(Cl)c2)/C1=N\Nc1nc2c([N+](=O)[O-])cccc2s1,MIC,[17],1.66 µg/mL
O=C1c2cccc3c(Br)ccc(c23)C(=O)N1CCCn1c[n+](Cc2ccc(F)cc2F)cn1.[Br-],MIC,Pichia norvegensis,4 µg/mL
COc1ccc(-c2nc(-c3ccccc3)c(-c3ccccc3)n2C(NN2CCCCC2)c2ccccc2)c(OC)c1OC (stereo unspecified),inhibition zone (IZ),Candida albicans [12],29 mm
same,inhibition zone (IZ),Aspergillus niger [13],26 mm
NNC(=O)c1ccncc1 [ISONIAZID],MIC,[5],0.2 µg/mL
O=C1Nc2cc3c(-c4ccccc4)c(-c4ccccc4)oc(=O)c3cc2C(c2ccc([N+](=O)[O-])cc2)N1 (stereo unspecified),MIC,[5],40 µg/mL
Cn1ccnc1-c1nn2cc(-c3ccc(-c4ccc([N+](=O)[O-])cc4)cc3)nc2s1,MIC,[18],3.14 µg/mL
COc1ccc(-c2nc(-c3ccccc3)c(-c3ccccc3)n2C(NN2CCNCC2)c2ccccc2)c(OC)c1OC (stereo unspecified),inhibition zone (IZ),Candida albicans [12],28 mm
same,inhibition zone (IZ),Aspergillus niger [13],27 mm
CCN(CC)CCCC(C)Nc1ccnc2cc(Cl)ccc12 (stereo unspecified) [CHLOROQUINE],MIC,Plasmodium falciparum [9],0.125 µg/mL
CS(=O)(=O)c1ccc(-c2nc(S(C)(=O)=O)nn2-c2ccc(Br)cc2)cc1,inhibition (INH),Mus musculus,70.8%
CC1(C)CC[C@]2(C(=O)O)CC[C@]3(C)C(=CC[C@@H]4[C@@]5(C)CC[C@H](OC(=O)/C=C/c6ccccc6)C(C)(C)[C@@H]5CC[C@]43C)[C@@H]2C1,inhibition zone (IZ),[7],31 mm
CCCCCCCCCCCCCCCC[n+]1cnn(Cc2ccc(Cl)cc2Cl)c1.[Br-],MIC,Candida albicans [4],30 µg/mL
COc1cc(Nc2nc(OCc3cn(CCCNc4cccc5cc(Cl)ccc45)nn3)nc(N(C)C)n2)cc(OC)c1,IC50,Plasmodium falciparum [11],1200 nM
CSc1nc(-c2ccc(S(N)(=O)=O)cc2)n(-c2ccc(F)cc2)n1,inhibition (INH),Mus musculus,75%
CO[C@H]1/C=C/O[C@@]2(C)Oc3c(C)c(O)c4c(O)c(c(/C=N/N5CCN(C)CC5)c(O)c4c3C2=O)NC(=O)/C(C)=C\C=C\[C@H](C)[C@H](O)[C@@H](C)[C@@H](O)[C@@H](C)[C@H](OC(C)=O)[C@@H]1C [RIFAMPIN],Activity,[19],87%
O=C(NN1C(=O)CSC1c1ccc([N+](=O)[O-])cc1)c1ccc(NCN2c3ccccc3Sc3ccccc32)cc1 (stereo unspecified),MIC,[5],3.12 µg/mL
COc1cc(Nc2nc(OCc3cn(CCCNc4cccc5cc(Cl)ccc45)nn3)nc(N3CCOCC3)n2)cc(OC)c1,IC50,Plasmodium falciparum [11],1730 nM
NC(Cc1cc2ccccc2c2ccccc12)C(=O)N[C@H](C(=O)O)[C@H]1O[C@@H](n2ccc(=O)[nH]c2=O)[C@H](O)[C@@H]1O (stereo partly specified),IC50,Candida albicans [2],0.31 µg/mL
